Reference: ChEMBL document CHEMBL3885881, “DrugMatrix”

Organism: Rattus norvegicus
Experiment: DrugMatrix - Regimen: Daily Repeat
Type: toxicity, organism-based, Sprague-Dawley
Design: regimen Daily Repeat, gender Male, age 6-8 weeks
Conditions: in vivo, po, route oral GAVAGE, vehicle .5 % CMC; for ABSOLUTE BASOPHIL / ABSOLUTE EOSINOPHIL / ABSOLUTE LYMPHOCYTE / ABSOLUTE MONOCYTE / ABSOLUTE SEGMENTED NEUTROPHIL / BASOPHIL / EOSINOPHIL / ERYTHROCYTE COUNT / HEMATOCRIT / HEMOGLOBIN / LEUKOCYTE COUNT / LYMPHOCYTE / MEAN CORPUSCULAR HEMOGLOBIN / MEAN CORPUSCULAR HEMOGLOBIN CONCENTRATION / MEAN CORPUSCULAR VOLUME / MONOCYTE / NEUTROPHIL / NUCLEATED RED BLOOD CELLS / PLATELET COUNT: tissue Blood; for ALANINE AMINOTRANSFERASE / ALBUMIN / ALKALINE PHOSPHATASE / ASPARTATE AMINOTRANSFERASE / BLOOD UREA NITROGEN / CARBON DIOXIDE / CHLORIDE / CHOLESTEROL / CREATINE PHOSPHOKINASE / CREATININE / GLUCOSE / LACTATE DEHYDROGENASE / LIPASE / PHOSPHORUS / POTASSIUM / SODIUM / TOTAL BILIRUBIN / TOTAL PROTEIN / URIC ACID: tissue Plasma
[1] = 200 mg/kg, 72 h, dose level Low, time 3 day
[2] = 200 mg/kg, 120 h, dose level Low, time 5 day
[3] = 1000 mg/kg, 72 h, dose level High, time 3 day
[4] = 1000 mg/kg, 120 h, dose level High, time 5 day

With `c1ccc(Nc2ccc(Nc3ccccc3)cc2)cc1` the “ABSOLUTE BASOPHIL” value [1] was 0 CELLS/uL, the “ABSOLUTE EOSINOPHIL” value [1] was 237 CELLS/uL and the “ABSOLUTE LYMPHOCYTE” value [1] was 13213.33 CELLS/uL. The “ABSOLUTE MONOCYTE” value [1] was 291.33 CELLS/uL, the “ABSOLUTE SEGMENTED NEUTROPHIL” value [1] was 1225 CELLS/uL and the BASOPHIL [1] was 0%. For the same compound, the EOSINOPHIL [1] was 1.67%, the “ERYTHROCYTE COUNT” value [1] was 5.4 x10E6/uL and the HEMATOCRIT [1] was 33.57%. The HEMOGLOBIN [1] was 12.87 G/DL, the “LEUKOCYTE COUNT” value [1] was 14.97 x10E3/uL and the LYMPHOCYTE [1] was 88%. For the same compound, the “MEAN CORPUSCULAR HEMOGLOBIN” value [1] was 23.83 pg, the “MEAN CORPUSCULAR HEMOGLOBIN CONCENTRATION” value [1] was 38.33 G/DL and the “MEAN CORPUSCULAR VOLUME” value [1] was 62.2 fL. The MONOCYTE [1] was 2%, the NEUTROPHIL [1] was 8.33% and the “NUCLEATED RED BLOOD CELLS” value [1] was 0 /100WBC. The “PLATELET COUNT” value [1] was 1471 x10E3/uL, the “ALANINE AMINOTRANSFERASE” value [1] was 46.67 u/L and the ALBUMIN [1] was 4.2 G/DL. For the same compound, the “ALKALINE PHOSPHATASE” value [1] was 353.67 u/L, the “ASPARTATE AMINOTRANSFERASE” value [1] was 106.33 u/L and the “BLOOD UREA NITROGEN” value [1] was 15 mg/dL. The “CARBON DIOXIDE” value [1] was 22 mmol/L, the CHLORIDE [1] was 105.33 MEQ/L and the CHOLESTEROL [1] was 67 mg/dL. The “CREATINE PHOSPHOKINASE” value [1] was 1002.33 u/L, the CREATININE [1] was 0.23 mg/dL and the GLUCOSE [1] was 178.33 mg/dL. For the same compound, the “LACTATE DEHYDROGENASE” value [1] was 537.67 u/L, the LIPASE [1] was 9.33 u/L and the PHOSPHORUS [1] was 12.7 mg/dL. The POTASSIUM [1] was 6.26 MEQ/L, the SODIUM [1] was 143.9 MEQ/L and the “TOTAL BILIRUBIN” value [1] was 0.23 mg/dL. The “TOTAL PROTEIN” value [1] was 5.57 G/DL, the “URIC ACID” value [1] was 1.87 mg/dL and the “ABSOLUTE BASOPHIL” value [2] was 0 CELLS/uL. For the same compound, the “ABSOLUTE EOSINOPHIL” value [2] was 45 CELLS/uL, the “ABSOLUTE LYMPHOCYTE” value [2] was 13082 CELLS/uL and the “ABSOLUTE MONOCYTE” value [2] was 237 CELLS/uL. For the same compound, the “ABSOLUTE SEGMENTED NEUTROPHIL” value [2] was 736 CELLS/uL, the BASOPHIL [2] was 0% and the EOSINOPHIL [2] was 0.33%. The “ERYTHROCYTE COUNT” value [2] was 5.63 x10E6/uL, the HEMATOCRIT [2] was 36.07% and the HEMOGLOBIN [2] was 13.67 G/DL. For the same compound, the “LEUKOCYTE COUNT” value [2] was 14.1 x10E3/uL, the LYMPHOCYTE [2] was 92.67% and the “MEAN CORPUSCULAR HEMOGLOBIN” value [2] was 24.23 pg. The “MEAN CORPUSCULAR HEMOGLOBIN CONCENTRATION” value [2] was 37.93 G/DL, the “MEAN CORPUSCULAR VOLUME” value [2] was 63.97 fL and the MONOCYTE [2] was 1.67%. For the same compound, the NEUTROPHIL [2] was 5.33%, the “NUCLEATED RED BLOOD CELLS” value [2] was 0.33 /100WBC and the “PLATELET COUNT” value [2] was 1272.33 x10E3/uL. For the same compound, the “ALANINE AMINOTRANSFERASE” value [2] was 46 u/L, the ALBUMIN [2] was 4.23 G/DL and the “ALKALINE PHOSPHATASE” value [2] was 349 u/L. The “ASPARTATE AMINOTRANSFERASE” value [2] was 77.67 u/L, the “BLOOD UREA NITROGEN” value [2] was 17 mg/dL and the “CARBON DIOXIDE” value [2] was 28 mmol/L. For the same compound, the CHLORIDE [2] was 105.67 MEQ/L, the CHOLESTEROL [2] was 70.67 mg/dL and the “CREATINE PHOSPHOKINASE” value [2] was 230.33 u/L. For the same compound, the CREATININE [2] was 0.24 mg/dL, the GLUCOSE [2] was 178 mg/dL and the “LACTATE DEHYDROGENASE” value [2] was 121.33 u/L. It also gave an LIPASE [2] of 8.67 u/L, a PHOSPHORUS [2] of 12.4 mg/dL and a POTASSIUM [2] of 6.76 MEQ/L. The SODIUM [2] was 148.13 MEQ/L, the “TOTAL BILIRUBIN” value [2] was 0.23 mg/dL and the “TOTAL PROTEIN” value [2] was 5.83 G/DL. For the same compound, the “URIC ACID” value [2] was 2 mg/dL, the “ABSOLUTE BASOPHIL” value [3] was 0 CELLS/uL and the “ABSOLUTE EOSINOPHIL” value [3] was 52.33 CELLS/uL. For the same compound, the “ABSOLUTE LYMPHOCYTE” value [3] was 13944 CELLS/uL, the “ABSOLUTE MONOCYTE” value [3] was 300.33 CELLS/uL and the “ABSOLUTE SEGMENTED NEUTROPHIL” value [3] was 1236.67 CELLS/uL. For the same compound, the BASOPHIL [3] was 0%, the EOSINOPHIL [3] was 0.33% and the “ERYTHROCYTE COUNT” value [3] was 5.47 x10E6/uL. For the same compound, the HEMATOCRIT [3] was 34.97%, the HEMOGLOBIN [3] was 13.1 G/DL and the “LEUKOCYTE COUNT” value [3] was 15.53 x10E3/uL. For the same compound, the LYMPHOCYTE [3] was 89.67%, the “MEAN CORPUSCULAR HEMOGLOBIN” value [3] was 23.97 pg and the “MEAN CORPUSCULAR HEMOGLOBIN CONCENTRATION” value [3] was 37.47 G/DL. The “MEAN CORPUSCULAR VOLUME” value [3] was 63.93 fL, the MONOCYTE [3] was 2% and the NEUTROPHIL [3] was 8%. The “NUCLEATED RED BLOOD CELLS” value [3] was 0 /100WBC, the “PLATELET COUNT” value [3] was 1345 x10E3/uL and the “ALANINE AMINOTRANSFERASE” value [3] was 40 u/L. For the same compound, the ALBUMIN [3] was 4.3 G/DL, the “ALKALINE PHOSPHATASE” value [3] was 405.33 u/L and the “ASPARTATE AMINOTRANSFERASE” value [3] was 83 u/L. For the same compound, the “BLOOD UREA NITROGEN” value [3] was 18.33 mg/dL, the “CARBON DIOXIDE” value [3] was 26.33 mmol/L and the CHLORIDE [3] was 102.33 MEQ/L. For the same compound, the CHOLESTEROL [3] was 78.33 mg/dL, the “CREATINE PHOSPHOKINASE” value [3] was 324.33 u/L and the CREATININE [3] was 0.21 mg/dL. The GLUCOSE [3] was 155.67 mg/dL, the “LACTATE DEHYDROGENASE” value [3] was 398 u/L and the LIPASE [3] was 8.67 u/L. The PHOSPHORUS [3] was 12.6 mg/dL, the POTASSIUM [3] was 7.38 MEQ/L and the SODIUM [3] was 144.77 MEQ/L. The “TOTAL BILIRUBIN” value [3] was 0.33 mg/dL, the “TOTAL PROTEIN” value [3] was 5.8 G/DL and the “URIC ACID” value [3] was 1.47 mg/dL. The “ABSOLUTE BASOPHIL” value [4] was 0 CELLS/uL, the “ABSOLUTE EOSINOPHIL” value [4] was 50 CELLS/uL and the “ABSOLUTE LYMPHOCYTE” value [4] was 13072 CELLS/uL. For the same compound, the “ABSOLUTE MONOCYTE” value [4] was 337.33 CELLS/uL, the “ABSOLUTE SEGMENTED NEUTROPHIL” value [4] was 907.33 CELLS/uL and the BASOPHIL [4] was 0%. For the same compound, the EOSINOPHIL [4] was 0.33%, the “ERYTHROCYTE COUNT” value [4] was 5.47 x10E6/uL and the HEMATOCRIT [4] was 35.47%. The HEMOGLOBIN [4] was 13.47 G/DL, the “LEUKOCYTE COUNT” value [4] was 14.37 x10E3/uL and the LYMPHOCYTE [4] was 91%. The “MEAN CORPUSCULAR HEMOGLOBIN” value [4] was 24.77 pg, the “MEAN CORPUSCULAR HEMOGLOBIN CONCENTRATION” value [4] was 37.97 G/DL and the “MEAN CORPUSCULAR VOLUME” value [4] was 65.07 fL. For the same compound, the MONOCYTE [4] was 2.33%, the NEUTROPHIL [4] was 6.33% and the “NUCLEATED RED BLOOD CELLS” value [4] was 0 /100WBC. For the same compound, the “PLATELET COUNT” value [4] was 1396.67 x10E3/uL, the “ALANINE AMINOTRANSFERASE” value [4] was 42.33 u/L and the ALBUMIN [4] was 4.23 G/DL. The “ALKALINE PHOSPHATASE” value [4] was 316.67 u/L, the “ASPARTATE AMINOTRANSFERASE” value [4] was 67 u/L and the “BLOOD UREA NITROGEN” value [4] was 16.33 mg/dL. For the same compound, the “CARBON DIOXIDE” value [4] was 29 mmol/L, the CHLORIDE [4] was 105.67 MEQ/L and the CHOLESTEROL [4] was 69.33 mg/dL. For the same compound, the “CREATINE PHOSPHOKINASE” value [4] was 202.33 u/L, the CREATININE [4] was 0.25 mg/dL and the GLUCOSE [4] was 159 mg/dL. For the same compound, the “LACTATE DEHYDROGENASE” value [4] was 84.33 u/L, the LIPASE [4] was 9 u/L and the PHOSPHORUS [4] was 12.27 mg/dL. For the same compound, the POTASSIUM [4] was 6.19 MEQ/L, the SODIUM [4] was 146.97 MEQ/L and the “TOTAL BILIRUBIN” value [4] was 0.33 mg/dL. The “TOTAL PROTEIN” value [4] was 5.83 G/DL and the “URIC ACID” value [4] was 1.73 mg/dL.
